According to patent US8114862B2, “TGR5 modulators and methods of use thereof” (Intercept Pharmaceuticals, Inc., priority 2008, dated 2012):

Tests used:
[1] = system: Diet-Induced Obesity Mouse Model; experiment: Diet-induced obesity mouse model (Example 9); type: in vivo
bovine serum albumin = bovine serum albumin (Bos taurus, UniProt P02769); experiment: Albumin binding by equilibrium dialysis; type: in vitro ADME; details: 100 μM BA in 5% bovine serum albumin-saline, pH 7.2
Experimental: The extent of albumin binding was evaluated by equilibrium dialysis at a fixed BA-albumin ratio. BA was dissolved at a concentration of 100 μM in 5% bovine serum albumin-saline solution (pH 7.2) and left to stand for 24 h at 25° C. Two milliliters of this solution was dialyzed in cellulose sacs having a molecular weight cut-off of 12-14,000 against 25 ml of saline solution. The system was equilibrated by mechanical gently shaking for 72 h at 25° C. BA concentrations of the dialyzed solution (corresponding to the free unbound fraction) and of the starting solution were determined with HPLC-ESI-MS/MS in the same conditions of the previous analysis.
The percent of albumin binding was calculate from the initial BA concentration and from the unbound concentration in the dialyzed fraction.

intestinal bacteria = experiment: Metabolic stability in human stool culture (7α-dehydroxylation); type: in vitro ADME
Experimental: Homogenized fresh human stools (500 mg) were transferred into sterile vials to which 5 mL of sterilized chopped meat-glucose medium (Scott Lab., Fiskville, R.I.) was added. BA was then added at a final concentration of 0.05 mM. […] The samples were centrifuged at 3500 rpm for 10 min; from the supernatant the BA were isolated by C-18 solid-phase extraction and analyzed by TLC and HPLC-ES-MS/MS.
Thin-layer chromatography (TLC), utilizing silica gel 0.25 mm thickness plates (Merck, Darmstat, Germany), was employed as the first screening test. The solvent system used for the separation of conjugated BA was composed of propionic acid/isoamyl acetate/water/N-propanol (3:4:1:2, v/v/v/v; solvent I), and that of the unconjugated BA was acetic acid/carbon tetrachloride/isopropyl ether/isoamyl acetate/water/N-propanol/benzene (1:4:6:8:2:2, v/v/v/v/v/v; solvent II).

ileal explants = experiment: GLP-1 release ex vivo from ileal explants; set-up: species or system mouse; details: 1 h exposure, explants from 18-weeks HF-fed TGR5-Tg male mice
Experimental: . Pellicciari et al., 2007, J. Med. Chem. 50, 4265-4268). cAMP production was performed as described (Sato et al., 2008, J. Med. Chem. 51, 1831; Watanabe et al., 2006, Nature 439, 484). […] ATP/ADP ratio and GLP-1 release were measured according to the manufacturers' instructions (Biovision and Millipore, respectively). Primary brown adipocytes were prepared as previously described (Watanabe et al., 2006, Nature 439, 484), and ileal explants were prepared according to an established method (Cima et al., 2004, J. Exp. Med. 200, 1635-1646).
Plasma parameters and hepatic and fecal lipid content were measured as described (Mataki et al., 2007, Mol. Cell. Biol. 27, 8330-8339). Hematoxylin and eosin (H&E), Sirius red, and oil red 0 staining were performed as described (Mark al., 2007, Curr. Protoc. Mol. Biol. Chapter 29, Unit 29B, 24), and micrographs were taken on wide-field microscopes (Leica) with a CCD camera. For pancreatic sections, islets were sized and counted from four HE-stained alternated sections spaced of […] using ImageJ software (five animals per group). […] Insulin was extracted after O/N incubation at −20° C. in acid ethanol and measured by ELISA on PBS-diluted samples according to the manufacturer's instructions (Mercodia). GLP-1 release was measured in vitro, ex vivo, and in vivo according to methods known in the art.

STC-1 cells = experiment: STC-1 cell experiments (Cox activity, oxygen consumption, ATP/ADP, GLP-1 release); type: cell-based, mouse
HF-fed C57BL/6J mice = experiment: Dietary intervention in HF-fed C57BL/6J mice (Example 20); type: in vivo, mouse
Experimental: Age-matched male mice were used for all experiments. Genetically engineered mouse models (GEMMs), i.e., TGR5-Tg and TGR5^−/− mice, were generated as described in the Supplemental Data. […] Protoc. Mol. Chapter. […] Protoc. Mol. Biol. Chapter 29, Unit 29A, 22). […] Plasma GLP-1 levels were measured by ELISA (Millipore) on blood collected by retro-orbital puncture.

primary brown adipocytes = experiment: O2 consumption in primary brown adipocytes; type: cell-based, mouse; details: treated for 12 hr, 3 μM
[2] = Bile flow in bile fistula rat after femoral infusion (Example 22); type: in vivo
[3] = Biliary secretion and hepatic metabolism in bile fistula rat after femoral infusion (Example 22); type: in vivo; details: after iv administration
Experimental: In order to clarify this point the two pure isomers were administered by femoral infusion (i.v.) to a bile fistula rat model at a single dose of 1 μmol/min/kg bw for 1 hour and bile samples were collected for 3 hours. The effect on bile flow, on biliary secretion of the parent compound and of the main metabolite were also evaluated.
Bile samples collected at different times during the iv experiments were analyzed to determine the biliary secretions of the administered isomers and their main metabolites recovered in bile.
When samples were found out of linearity range, they were diluted and reanalyzed.
Rat bile samples were analyzed by HPLC-ESI-MS/MS using the ESI source in negative ionization mode. […] The autosampler was maintained at 7° C. […] Capillary voltage was 3.0 kV.
Calibration samples were obtained in the 0.1-20 μmol/L concentration range prepared in the mobile phase. […] Finally, calibration curves obtained for the free BA were used to estimate taurine conjugated metabolites.

PPARδ = molecular target: T1, PPARδ (Homo sapiens, UniProt Q03181); experiment: PPARδ coactivator recruitment assay
T1 sequence (Q03181 211-439 limits assumed): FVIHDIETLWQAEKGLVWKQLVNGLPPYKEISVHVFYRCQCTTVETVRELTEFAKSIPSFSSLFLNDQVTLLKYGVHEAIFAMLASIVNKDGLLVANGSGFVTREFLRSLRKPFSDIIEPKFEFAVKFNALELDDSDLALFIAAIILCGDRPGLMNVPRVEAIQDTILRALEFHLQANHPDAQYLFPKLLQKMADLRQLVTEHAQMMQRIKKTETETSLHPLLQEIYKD
Experimental: Lanthascreen assay (Invitrogen) was used for nulear receptor selectivity assay. The kit uses a terbium-labeled anti-GST antibody, a fluorescein-labeled coactivator peptide, and a NR ligand-binding domain that is tagged with glutathione-S-transferase (GST) in a homogenous mix-and-read assay format. […] Following 1 hour incubation in the dark, TR-FRET measurements were made in the Envision. […] The data was analyzed using GraphPad Prism using the sigmoidal curve equation with variable slope to obtain EC50 values.

Sequence of bovine serum albumin (P02769 25-607): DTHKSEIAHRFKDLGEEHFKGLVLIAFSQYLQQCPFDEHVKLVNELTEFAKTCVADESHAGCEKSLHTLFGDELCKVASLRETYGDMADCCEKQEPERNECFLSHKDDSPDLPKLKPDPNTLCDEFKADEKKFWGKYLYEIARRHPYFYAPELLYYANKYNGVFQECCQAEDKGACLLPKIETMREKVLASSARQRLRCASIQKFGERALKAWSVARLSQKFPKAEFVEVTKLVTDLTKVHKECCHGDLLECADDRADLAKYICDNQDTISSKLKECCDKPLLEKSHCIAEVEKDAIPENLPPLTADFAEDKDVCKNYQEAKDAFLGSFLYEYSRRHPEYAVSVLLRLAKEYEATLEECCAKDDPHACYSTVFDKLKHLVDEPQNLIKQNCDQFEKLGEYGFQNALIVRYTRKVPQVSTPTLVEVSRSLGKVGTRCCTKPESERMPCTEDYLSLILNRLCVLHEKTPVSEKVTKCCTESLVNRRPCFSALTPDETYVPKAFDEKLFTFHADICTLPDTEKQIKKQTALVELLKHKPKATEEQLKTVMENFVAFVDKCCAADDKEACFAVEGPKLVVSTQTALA

CC[C@H]1[C@@H](O)[C@@H]2[C@H](C[C@H](O)[C@]3(C)[C@@H]([C@H](C)C[C@H](C)C(=O)O)CC[C@@H]23)[C@@]2(C)CC[C@@H](O)C[C@@H]12 [Ih3e, 6α-ethyl-(23S)-methyl-3α,7α,12α trihydroxy-5β-cholan-24-oic acid]
plasma insulin levels ([1]; after 10 weeks, chow fed and high fat fed mice vs vehicle): increased
glucose levels ([1]; after 12 weeks, high fat fed mice): lower
food/water intake ([1]; high fat diet vs vehicle): slight increase
glucose tolerance ([1]; high fat fed mice): improves glucose tolerance
percentage of change in body, organ and adipose tissue weight compared to chow diet ([1]; high fat fed mice): reduced percentage change
blood glucose ([1]; high fat fed mice vs vehicle): lower
heart rate ([1]; high fat fed mice vs vehicle): lower heart rate
liver enzymes (LDH, ASAT, ALAT) ([1]; high fat fed mice vs vehicle): lower
plasma lipids (total cholesterol, HDL-chol, LDL-chol, triglycerides) ([1]; high fat fed mice vs vehicle): lower
insulin levels after a test meal ([1]; high fat fed mice vs vehicle, at about 12 minutes): peaked to higher levels
body weight gain ([1]; high fat fed mice, 16 weeks, vs vehicle): less weight gain
Albumin Binding (bovine serum albumin): 62%
7-dehydroxylation and intermediate formation of a 7-oxo derivative (intestinal bacteria): practically abolished
side chain stability to intestinal bacteria enzymatic activities (intestinal bacteria): not modified
compound recovered unmodified (intestinal bacteria; after 24 hour incubation): more than 85%
compound unmodified (intestinal bacteria; human, 12 h, 0.05 mM): more than 95%
GLP-1 release ex vivo (ileal explants): dramatically and dose-dependently induces the release of GLP-1 ex vivo
Cox activity (STC-1 cells): cAMP-dependent increase in Cox activity
cellular oxygen consumption (STC-1 cells): increase in cellular oxygen consumption
impact on GLP-1 release (STC-1 cells; prevented by RNA interference or MDL-12-330A): enhanced by TGR5 overexpression
expression level of classical target genes of FXR in the liver (CYP7A1, BSEP) (HF-fed C57BL/6J mice; 30 mg/kg/day): complete absence of changes
plasma levels (HF-fed C57BL/6J mice; 30 mg/kg/day admixed with diet): within the range of those of CA and 3-muricholic acid
increase in liver and fat pad mass (HF-fed C57BL/6J mice; HF-fed): attenuated
plasma triglycerides and nonesterified fatty acids (NEFAs) (HF-fed C57BL/6J mice; HF-fed mice): significant drop
fat mass (HF-fed C57BL/6J mice; HF-fed, relative to HF-fed controls): sharp reduction in fat mass
liver fibrosis (HF-fed C57BL/6J mice; Sirius red staining): absence of liver fibrosis
attenuation of body weight gain (HF-fed C57BL/6J mice; after 10 weeks of treatment, relative to HF-fed controls): about 15%
plasma levels of liver enzymes (HF-fed C57BL/6J mice; compared to HF-fed controls): markedly reduced
respiratory quotient (HF-fed C57BL/6J mice; dark period): significantly reduced
energy expenditure (O2 consumption and CO2 production) (HF-fed C57BL/6J mice; indirect calorimetry): enhanced energy expenditure
gene expression profiling of BAT (HF-fed C57BL/6J mice; mouse, in vivo): increase of several mitochondrial genes involved in energy expenditure
liver steatosis (HF-fed C57BL/6J mice; oil red O staining, liver lipid content): reduction in liver steatosis
O2 consumption after FCCP (primary brown adipocytes): significantly more pronounced
duration of increased bile flow after the end of the infusion period ([2]; iv infusion): at least 2 hours
bile flow rate ([2]; iv infusion 1 μmol/min/kg for 1 h): significantly increased the bile flow rate
biliary secretion [3]: efficient
PPARδ Activation EC50 (PPARδ): No activity
